These results are taken from PMC8244865, “Recruitment of phospholipase Cγ1 to the non-structural membrane protein pK15 of Kaposi Sarcoma-associated herpesvirus promotes its Src-dependent phosphorylation” (PLoS Pathogens, 2021).

Assay [1] relates to PLCγ1 tSH2 domain (Src-mediated phosphorylation, Y^783). Description: in vitro Src kinase assay, PLCγ1 tSH2 Y783 phosphorylation. It counts as biochemical. To be noted: 0.6 μM tSH2, 0.085 μM Src, 1.25–5 μM peptide or fixed 5.0 μM, 37°C, 1 hour or 45 min (method), pY783 Western blot. The procedure:
Fig 7 The pK15 CT domain enhances Src-mediated phosphorylation of the PLCγ1 tSH2 domain. (A) The purified PLCγ1 tSH2 domain (0.6 μM) was incubated with limiting amounts (0.085 μM) of recombinant purified Src kinase expressed in insect cells in the presence of increasing concentrations (1.25–5 μM) of phosphorylated peptides representing the last 12 (pK15 12mer) or 35 (pK15 35mer) amino acids of the pK15 cytoplasmic domain for 1 hour at 37°C. The reaction was stopped using SDS sample buffer and analysed by SDS-PAGE and Western blot using an antibody to the PLCγ1 pY^783 residue (top panel) or to the His tag on the recombinant tSH2 domain (bottom panel). (B) Same as above, except that a fixed concentration (5.0 μM) of the 12mer peptide, the 35mer peptide or the pK15 truncation construct GST-pK15 CT^N2 [51] were used. The increased phosphorylation of the tSH2 domain in the presence of the 35mer peptide and pK15 CT^N2 can be seen. (C) Increasing concentrations of the phosphorylated pK15 12mer peptide were used to inhibit the increased src-mediated phosphorylation of tSH2 induced by 2.5 μM of the pK15 35mer peptide. Experimental conditions were as in panel A.
To test the impact of a pK15 CT fragment (pK15 CT^N2) or phosphorylated pK15 peptides representing the last 12 (DDLp[…]) or 35 ([…]pYEEVLFRN) amino acids of pK15 CT on the Src-mediated phosphorylation of the PLCγ1 tSH2 domain, GST-pK15CT^N2 was first phosphorylated with Src in vitro as described in the preceding paragraph. Phosphorylated GST-pK15 CT^N2 or the phosphorylated pK15 peptides, suspended in 50 mM Tris pH7.4, 300 mM NaCl, 1 mM DTT, were then added to the purified recombinant tSH2 domain (0.6 μM) together with a limiting amount of recombinant Src kinase (0.085 μM) in kinase buffer (20 mM Tris pH7.4, 20 mM NaCl, 1 mM DTT, 10 mM MgCl2, 0.2 mM ATP, 0.5 mM Sodium orthovanadate, 0.5 mM β-glycerophosphate) and the reaction allowed to proceed for 45 min. The reaction mix was then analysed by Western blot using an antibody to the phosphorylated Y^783 in the linker region of the PLCγ1 tSH2 domain and an antibody to the 5x His tag. To test the inhibitory effect of the phosphorylated 12mer pK15 peptide on the enhancement of PLCγ1 tSH2 domain phosphorylation induced by the pK15 35mer peptide, increasing concentrations (1.25–5.0 μM) of the 12mer peptide were added to a reaction mix containing the purified recombinant tSH2 domain (2.5 μM), the phosphorylated pK15 35mer (2.5 μM), and recombinant Src kinase (0.085 μM). Following a 45 min incubation at 37°C, the reaction mixture was analysed by Western blot as above.
(In general: Immunoblotting shows a protein as a band on a membrane.)

The next assay has as its target T1, PLCγ1 cSH2 (Homo sapiens, UniProt P19174).
T1 construct: cSH2 (668–790): 166 ± 30 nM; thioredoxin (pETM22 fusion, purified on Ni column) (N, cleaved yes); made in house; host or cells: E. coli BL21(DE3)
Description: 1H,15N HSQC NMR titration, PLCγ1 cSH2. It counts as binding. To be noted: 1H-15N HSQC titration, 600 MHz, 298 K, 100 μM protein, 100 mM MES, 150 mM NaCl, 3 mM TCEP, pH 6.5. The procedure:
Fig 5 Affinity of pK15 peptide for PLCγ1 tSH2 or individual SH2 domains. (A) Binding curves of several PLCγ1 fragments in the presence of 200 nM 5,6-FAM-labelled pK15 (12mer). All measurements were performed in triplicate. […] (B and C) Overlay of ^1H,^15N HSQC NMR spectra of nSH2 (B) and cSH2 (C) alone (in yellow) and in the presence of 2 molar equivalents of the pK15 12mer peptide (blue), measured with a 600 MHz spectrometer at 298 K. The protein concentration was 100 μM and the buffer contained 100 mM MES, 150 mM NaCl, 3 mM TCEP, pH 6.5. (D and E) Excerpts from ^1H-^15N HSQC spectra of nSH2 (D) and cSH2 (E) upon addition of increasing concentrations of the pK15 12mer peptide.
Next, we used Nuclear Magnetic Resonance (NMR) spectroscopy to further compare the interaction of the phosphorylated pK15 12mer to the isolated nSH2 and cSH2 domains (Fig 5B–5E). We recorded ^1H-^15N HSQC spectra of each of the two domains in the presence of increasing concentrations of the pK15 peptide. […] In light of this, it is conceivable that the preference of pK15 CT for cSH2 in vivo may be determined by kinetic rather than thermodynamic factors.
NMR experiments were recorded at 298 K on a 600-MHz Bruker Avance III-HD spectrometer equipped with an inverse HCN cryogenic probehead (nitrogen-cooled) and running Topspin 3.2 software. […] NMR data were processed in Topspin and analysed in CcpNmr Analysis v2.4 [74].

T1 sequence (P19174 668-790): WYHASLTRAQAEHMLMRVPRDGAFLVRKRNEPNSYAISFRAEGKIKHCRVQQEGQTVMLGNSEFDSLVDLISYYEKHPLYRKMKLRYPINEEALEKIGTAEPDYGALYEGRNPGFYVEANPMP

Regarding “DDLpYEEVLFPRN [pK15 12mer, phosphorylated peptide representing the last 12 amino acids of pK15 CT (DDLp…)]”, the “effect on Src-mediated phosphorylation of PLCγ1 tSH2” value in assay [1] (listed as 12mer pK15 peptide) was “moderate inhibition”; in assay [1] (listed as 12mer peptide) it was “cannot enhance the Src-mediated phosphorylation of PLCγ1”. Also, the NMR exchange regime entry on PLCγ1 cSH2 was “fast exchange regime”.

B1: pK15 CT^WT: pK15 cytoplasmic tail fused to GST at its N-terminal end, phosphorylated in vitro by Src (protein)
chain: SQLLNEVELQEVNRDPPNVFGYASILVSGAEESREPSPQPDQSGMSILRVDGGSAFRIDTAQAATQPTDDLYEEVLFPRN
modifications: tyrosine-phosphorylated in vitro by Src; sites not stated for this construct; left off: GST, N-terminal, kept
Turning to B1, in assay [1], the “effect on Src-mediated phosphorylation of PLCγ1 tSH2” value was “enhanced the Src-mediated phosphorylation of the PLCγ1 tSH2 domain”.
